IC50 data for 24 compounds are collected here from US20260176267A1, “PREPARATION OF IMIDAZOPYRIDINE AND IMIDAZOPYRIDAZINE DERIVATIVES AS NOVEL DIACYLGLYCERIDE O-ACYLTRANSFERASE 2 INHIBITORS” (Merck Sharp & Dohme LLC, priority 2022, published 2026).

A word on the IC50: it is the point on the concentration scale where inhibition reaches its midpoint.

This experiment concerns the target T1, human DGAT2 (hDGAT2) (Homo sapiens, UniProt Q96PD7).
T1 construct: made in house; host or cells: Sf-9 insect cells (baculovirus), membrane fraction
T1 sequence (Q96PD7 1-388): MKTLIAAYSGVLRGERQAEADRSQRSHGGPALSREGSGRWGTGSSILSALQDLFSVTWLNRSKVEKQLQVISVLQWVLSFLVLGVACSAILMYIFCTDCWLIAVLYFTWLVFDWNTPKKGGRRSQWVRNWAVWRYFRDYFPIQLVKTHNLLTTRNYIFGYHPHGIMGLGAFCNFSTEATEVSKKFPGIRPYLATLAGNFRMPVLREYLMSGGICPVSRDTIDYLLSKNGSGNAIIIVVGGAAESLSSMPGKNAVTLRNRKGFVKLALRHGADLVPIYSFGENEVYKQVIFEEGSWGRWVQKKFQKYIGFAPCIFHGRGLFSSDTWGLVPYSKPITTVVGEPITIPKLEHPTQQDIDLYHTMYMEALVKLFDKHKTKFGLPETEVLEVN
In words: DGAT2 Enzymatic Activity Assay. Conditions: membrane prep of Sf-9 cells expressing hDGAT2; 13C18-triolein product by LC/MS/MS; 25 μM diolein, 5 μM 13C oleoyl-CoA, rt. The experiment is classed as biochemical. On the procedure: Sf-9 insect cells were maintained in Grace's insect cell culture medium with 10% heated-inactivated fetal bovine serum, 1% Pluronic F-68 and 0.14 μg/ml Kanamycine sulfate at 27° C. in a shaker incubator. After infection with untagged baculovirus expressing human DGAT2 (hDGAT2) at multiplicity of infection (MOI) 3 for 48 hours, cells were harvested. Cell pellets were suspended in buffer containing 10 mM Tris-HCl pH 7.5, 1 mM EDTA, 250 mM sucrose and Complete Protease Inhibitor Cocktail (Sigma Aldrich), and sonicated on ice. Cell debris were removed by centrifugation at 2000×g for 15 minutes. Membrane fractions were isolated by ultracentrifugation (100,000×g), resuspended in the same buffer, and frozen (−80° C.) for later use. The protein concentration was determined with the Pierce™ BCA Protein Assay Kit (Thermo Fisher Scientific).
LC/MS/MS analyses were performed using Thermal Fisher's LX4-TSQ Vantage system. This system consists of an Agilent binary high-performance liquid chromatography (HPLC) pump and a TSQ Vantage triple quadrupole MS/MS instrument. For each sample, 2 μL samples from the top organic layer of in-plate liquid-liquid extraction were injected onto a Thermo Betabasic C4 column (2.1 mm×20 mm, 5 μm particle size). The samples were then eluted using the following conditions; mobile phase: Isopropanol:acetonitrile/10 mM ammonium formate=50/35/15 (v/v/v), flow rate: 0.8 mL/min, temperature: 25° C. Data was acquired in positive mode using a heated electrospray ionization (HESI) interface. The operational parameters for the TSQ Vantage MS/MS instrument were a spray voltage of 3000 V, capillary temperature of 280° C., vaporizer temperature 400° C., sheath gas 45 arbitrary unit. Aux gas 10 arbitrary units. […] The peak area was integrated by Xcalibur Quan software. The ratio between the ^13C18 triolein generated in the reaction and spiked in internal standard ^13C21-triolein was used to generate percentage inhibition and IC50 values. Compound percentage inhibition was calculated by the following formula: Inhibition %=1−[(compound response−low control)/(high control−low control)]×100%.
DGAT2 activity was determined by measuring the amount of enzymatic product ^13C18-triolein (^13C-1,2,3-Tri(cis-9-octadecenoyl)glycerol) using the membrane prep mentioned above. The assay was carried out in ABgene 384-well assay plates in a final volume of 25 μL at rt.

Molecules are shown by their SMILES.

As for `Cc1cc2nc(C(=O)NC3(C)CCS(=O)(=O)CC3)cn2cc1Oc1ncc(Cl)cc1OCC(F)(F)F` [Example 30, 6-[[5-chloro-3-(2,2,2-trifluoroethoxy)-2-pyridyl]oxy]-7-methyl-N-(4-methyl-1,1-dioxo-thian-4-yl)imidazo[1,2-a]pyridine-2-carboxamide], the IC50 was 6.2 nM. For `Cc1c(Oc2ncc(Cl)cc2OCC(C)(F)F)ccc2nc(C(=O)NC3(C)CCS(=O)(=O)CC3)cn12` [Example 31, 6-[[5-chloro-3-(2,2-difluoropropoxy)-2-pyridyl]oxy]-5-methyl-N-(4-methyl-1,1-dioxo-thian-4-yl)imidazo[1,2-a]pyridine-2-carboxamide] the value was 9.1 nM. For `CC1(NC(=O)c2cn3cc(Oc4ncc(F)cc4OCC(F)(F)F)ccc3n2)CS(=O)(=O)C1` [Example 32, 6-[[5-fluoro-3-(2,2,2-trifluoroethoxy)-2-pyridyl]oxy]-N-(3-methyl-1,1-dioxo-thietan-3-yl)imidazo[1,2-a]pyridine-2-carboxamide] the value was 31 nM. As for `Cc1c(Oc2ncc(F)cc2OCC2(F)CC2)ccc2nc(C(=O)NC3(C)CCS(=O)(=O)CC3)cn12` [Example 33, 6-[[5-fluoro-3-[(1-fluorocyclopropyl)methoxy]-2-pyridyl]oxy]-5-methyl-N-(4-methyl-1,1-dioxo-thian-4-yl)imidazo[1,2-a]pyridine-2-carboxamide], the figure is 5.3 nM; as for `Cc1c(Oc2ncc(F)cc2OCC(F)(F)F)ccc2nc(C(=O)NC3(C)CCS(=O)(=O)CC3)cn12` [Example 34, 6-[[5-fluoro-3-(2,2,2-trifluoroethoxy)-2-pyridyl]oxy]-5-methyl-N-(4-methyl-1,1-dioxo-thian-4-yl)imidazo[1,2-a]pyridine-2-carboxamide], 2.8 nM. With `CCOc1cccnc1Oc1ccc2nc(C(=O)N[C@@]3(C)CCS(=O)(=O)C3)cn2c1` [Example 35, 6-[(3-ethoxy-2-pyridyl)oxy]-N-[(3S)-3-methyl-1,1-dioxo-thiolan-3-yl]imidazo[1,2-a]pyridine-2-carboxamide], the half-maximal inhibitory concentration (IC50) was 52 nM. As to `Cc1c(Oc2ncccc2OCC(F)(F)F)ccc2nc(C(=O)NC3(C)CCS(=O)(=O)CC3)cn12` [Example 36, 5-methyl-N-(4-methyl-1,1-dioxo-thian-4-yl)-6-[[3-(2,2,2-trifluoroethoxy)-2-pyridyl]oxy]imidazo[1,2-a]pyridine-2-carboxamide], the IC50 was found to be 30 nM. `CCOc1cccnc1Oc1ccc2nc(C(=O)N[C@@H]3CCCC[C@@H]3O)cn2c1` [Example 37] displayed an IC50 of 124 nM.

Turning to `CCOc1cccnc1Oc1ccc2nc(C(=O)NC3CC(C)(C)OC(C)(C)C3)cn2c1` [Example 38, 6-[(3-ethoxy-2-pyridyl)oxy]-N-(2,2,6,6-tetramethyltetrahydropyran-4-yl)imidazo[1,2-a]pyridine-2-carboxamide], half-maximal inhibition (IC50) was put at 56 nM. With `CC1(NC(=O)c2cn3c(F)c(Oc4ncccc4OCC(F)(F)F)ccc3n2)CCS(=O)(=O)CC1` [Example 39, 5-fluoro-N-(4-methyl-1,1-dioxo-thian-4-yl)-6-[[3-(2,2,2-trifluoroethoxy)-2-pyridyl]oxy]imidazo[1,2-a]pyridine-2-carboxamide], the IC50 was 74 nM.

For `Cc1cc2nc(C(=O)NC3(C)CCS(=O)(=O)CC3)cn2c(C)c1Oc1ncc(F)cc1OCC(C)(F)F` [Example 40, 6-[[3-(2,2-difluoropropoxy)-5-fluoro-2-pyridyl]oxy]-5,7-dimethyl-N-(4-methyl-1,1-dioxo-thian-4-yl)imidazo[1,2-a]pyridine-2-carboxamide], the IC50 is 52 nM. For `Cc1cc2nc(C(=O)NC3(C)CCS(=O)(=O)CC3)cn2cc1Oc1ncc(Cl)cc1OCC1(F)COC1` [Example 41, 6-[[5-chloro-3-[(3-fluorooxetan-3-yl)methoxy]-2-pyridyl]oxy]-7-methyl-N-(4-methyl-1,1-dioxo-thian-4-yl)imidazo[1,2-a]pyridine-2-carboxamide], the IC50 is 74 nM. For `CC1(CNC(=O)c2cn3cc(Oc4ncc(Cl)cc4OCC(F)(F)F)ccc3n2)CS(=O)(=O)C1` [Example 42, 6-[[5-chloro-3-(2,2,2-trifluoroethoxy)-2-pyridyl]oxy]-N-[(3-methyl-1,1-dioxo-thietan-3-yl)methyl]imidazo[1,2-a]pyridine-2-carboxamide], half-maximal inhibition (IC50) required 50 nM.

As to `CC(C)c1cc2nc(C(=O)NC3(C)CCS(=O)(=O)CC3)cn2cc1Oc1ncc(Cl)cc1OCC(F)(F)F` [Example 43, 6-[[5-chloro-3-(2,2,2-trifluoroethoxy)-2-pyridyl]oxy]-7-isopropyl-N-(4-methyl-1,1-dioxo-thian-4-yl)imidazo[1,2-a]pyridine-2-carboxamide], the IC50 is 122 nM. As for `Cc1c(Oc2nccnc2OCC(F)(F)F)cc(F)c2nc(C(=O)NC3(C)CCS(=O)(=O)CC3)cn12` [Example 44, 8-fluoro-5-methyl-N-(4-methyl-1,1-dioxo-thian-4-yl)-6-[3-(2,2,2-trifluoroethoxy)pyrazin-2-yl]oxy-imidazo[1,2-a]pyridine-2-carboxamide], the figure is 68 nM. `CCOc1cccnc1Oc1ccc2nc(C(=O)Nc3ccccc3)cn2c1` [Example 45, 6-[(3-ethoxy-2-pyridyl)oxy]-N-phenyl-imidazo[1,2-a]pyridine-2-carboxamide;2,2,2-trifluoroacetate] registered a 50% inhibitory concentration (IC50) of 168 nM. `Cc1c(Oc2nccnc2OCC(F)F)ccc2nc(C(=O)NC3(C)CCS(=O)(=O)CC3)cn12` [Example 46, 6-[3-(2,2-difluoroethoxy)pyrazin-2-yl]oxy-5-methyl-N-(4-methyl-1,1-dioxo-thian-4-yl)imidazo[1,2-a]pyridine-2-carboxamide]: the IC50 was 42 nM. Compound `CC(F)(F)COc1cc(F)cnc1Oc1cn2cc(C(=O)NC3(C)CCS(=O)(=O)CC3)nc2cc1F` [Example 47, 6-((3-(2,2-difluoropropoxy)-5-fluoropyridin-2-yl)oxy)-7-fluoro-N-(4-methyl-1,1-dioxidotetrahydro-2H-thiopyran-4-yl)imidazo[1,2-a]pyridine-2-carboxamide] showed an IC50 of 8.7 nM. Turning to `CC(C)c1cc2nc(C(=O)NC3(C)CCS(=O)(=O)CC3)cn2cc1Oc1ncccc1OCC(F)(F)F` [Example 48, 7-isopropyl-N-(4-methyl-1,1-dioxo-thian-4-yl)-6-[[3-(2,2,2-trifluoroethoxy)-2-pyridyl]oxy]imidazo[1,2-a]pyridine-2-carboxamide], the IC50 worked out at 59 nM. As for `CC(C)c1c(Oc2ncc(Cl)cc2OCC(F)(F)F)ccc2nc(C(=O)NC3(C)CCS(=O)(=O)CC3)cn12` [Example 49, 6-[[5-chloro-3-(2,2,2-trifluoroethoxy)-2-pyridyl]oxy]-5-isopropyl-N-(4-methyl-1,1-dioxo-thian-4-yl)imidazo[1,2-a]pyridine-2-carboxamide], the figure is 12 nM.

Regarding `CC1(CNC(=O)c2cn3cc(Oc4ncc(Cl)cc4OCC(F)(F)F)ccc3n2)CCS(=O)(=O)CC1` [Example 50, 6-[[5-chloro-3-(2,2,2-trifluoroethoxy)-2-pyridyl]oxy]-N-[(4-methyl-1,1-dioxo-thian-4-yl)methyl]imidazo[1,2-a]pyridine-2-carboxamide], the concentration for half-maximal inhibition (IC50) amounted to 174 nM. Consider `O=C(NC1CCOc2c(F)cc(F)cc21)c1cn2cc(Oc3ncccc3OCC(F)(F)F)ccc2n1` (stereo not drawn) [Example 51, N-(6,8-difluorochroman-4-yl)-6-[[3-(2,2,2-trifluoroethoxy)-2-pyridyl]oxy]imidazo[1,2-a]pyridine-2-carboxamide], for which the IC50 came to 123 nM. Take `CCOc1cccnc1Oc1ccc2nc(C(=O)N[C@H]3CCOC3)cn2c1` [Example 52, 6-[(3-ethoxy-2-pyridyl)oxy]-N-[(3S)-tetrahydrofuran-3-yl]imidazo[1,2-a]pyridine-2-carboxamide]: the IC50 came to 814 nM. Regarding `CCOc1cccnc1Oc1ccc2nc(C(=O)NCc3ccccc3)cn2c1` [Example 53, N-benzyl-6-[(3-ethoxy-2-pyridyl)oxy]imidazo[1,2-a]pyridine-2-carboxamide], the midpoint of inhibition, the IC50, lay at 346 nM.
